Data: patent US11766430B2, “Methods of using a phenoxypropylamine compound to treat pain” (Minerva Neurosciences, Inc., priority 2018, dated 2023)
“And” between values parts separate entries of the source, which are not always exact repeats. Equal entries are not always repeated.

System: carrageenan-induced mechanical hyperalgesia in rats
Test: Carrageenan-induced mechanical hyperalgesia, paw pressure test, MIN-117 1-10 mg/kg (Example 4)
Format: in vivo, male Sprague-Dawley rats
Conditions: Carrageenan 2%; for Nociceptive threshold, injured paw (mean ± s.e.m.) / % activity, injured paw: 3 mg/kg; for paw withdrawal threshold, control paw, Mean: n = 10
Method: In this model, inflammation is induced by intraplantar injection of carrageenan (2%) into the right hindpaw of the rat. Three hours later, reaction thresholds are measured using the paw pressure test. Pressure is gradually applied to both hind paws (inflamed and control) of the rat, and reaction thresholds are determined as the pressure (g) required to elicit paw withdrawal or vocalization. Morphine (3 mg/kg, s.c.), used as positive control.
The experiments in this study used fifty (50) male Sprague-Dawley rats (SPF status, Janvier, France), each weighing 183-244 g during the experimental phase. The rats were housed in a temperature (20-24° C.) and relative humidity (45%-65%) controlled room and acclimated to an artificial day/night cycle of 12 hours light (6.30 a.m. to 6.30 p.m.)/12 hours darkness. Rats had free access to sterilized tap water and were fed ad libitum with pelleted complete diet (reference A04, S.A.F.E.). Animals were housed 4 per cage (cages Type E) and were acclimated for a period of at least 5 days before any testing. Each rat was identified by tail markings. Based on the SPF status of the animal facilities, there is no reason to expect that contaminants were present in the food, water or bedding, at levels capable of interfering with the results of the tests.
Static mechanical hyperalgesia was assessed using the Paw Pressure test or Randall & Selitto test (Randall, L. O. and Selitto, J. J., A method for measurement of analgesic activity on inflamed tissue, Arch Int Pharmacodyn, 1957(111): 409-419). This test requires the application of an increasing pressure on the hind paws between a flat surface and a blunt pointer. This test is usually used with animals with one hind paw inflamed by an injection or injured by ligation, and one normal hind paw, to evaluate drugs for analgesic action. The apparatus exerts a steadily increasing force and reaction threshold is determined as the pressure (g) required to elicit paw withdrawal and/or vocalization. In the experiment, animals were gently handled by the experimenter and static mechanical hyperalgesia was assessed. Each reaction threshold measurement was done for both hind paws.
Five (5) experimental groups of 10 rats each were used. Each group was first injected with 100 μL of a 2% carrageenan suspension was injected into the plantar aspect of the right hindpaw. Three hours after carrageenan injection, nociceptive reaction thresholds (vocalization or paw withdrawal) were measured in order to select animals meeting the inclusion criteria: 20 g<paw withdrawal threshold<240 g (baseline). The 5 groups were then administered the following: • Group 1: vehicle (0.5% HPMC), i.p., solution (negative control); • Group 2: MIN-117 (1 mg/kg, i.p.) in 0.5% HPMC, suspension; • Group 3: MIN-117 (3 mg/kg, i.p.) in 0.5% HPMC, suspension; • Group 4: MIN-117 (10 mg/kg, i.p.) in 0.5% HPMC, suspension; and • Group 5: morphine (3 mg/kg, s.c.) in 0.9% NaCl, solution (positive control).
Thirty minutes after morphine injection, the antihyperalgesic effect of morphine was evaluated using the paw pressure test. For vehicle and MIN-117 administration, the antihyperalgesic effect was evaluated after 120 min. using the paw pressure test.
Vehicle and MIN-117 were intraperitoneally administered at 10 mL/kg. Morphine was subcutaneously administered at 5 mL/kg. Dosing and testing were performed in a random order by a blinded experimenter except for the morphine-treated group. Doses were expressed in terms of free active substance.
Results were expressed as: • The paw withdrawal threshold (mean±s.e.m.) in grams of contact pressure for each group, calculated from individual paw withdrawal thresholds • The percentage of variation of the paw withdrawal threshold calculated from the mean value of the vehicle-treated group • The percentage of activity of activity of the compound on carrageenan-induced mechanical hyperalgesia, calculated as follows: […]

[1] = 3 mg/kg s.c., T0 (before dosing)
[2] = 3 mg/kg s.c., T0 + 30 min, listed as morphine
[3] = Morphine 3 mg/kg s.c. group, Baseline (before dosing)
[4] = Morphine 3 mg/kg s.c., 30 min after treatment

## CN1CC[C@]23c4c5ccc(O)c4O[C@H]2[C@@H](O)C=C[C@H]3[C@H]1C5 [Morphine, reference compound]
3 mg/kg s.c., 30 min. after the injection
  Effect on nociceptive threshold vs baseline pre-treatment (in words): marked and significant increase
3 mg/kg s.c., T0 (3 h after carrageenan, before dosing)
  Nociceptive threshold, control paw (mean ± s.e.m.): 376 ± 14.5 g
[1]
  % variation vs control paw, injured paw: −47%
  % variation vs vehicle-treated group, injured paw: 0%
  Nociceptive threshold, injured paw (mean ± s.e.m.): 200 ± 6.7 g
3 mg/kg s.c., T0 (before dosing), listed as morphine
  Nociceptive threshold, injured paw (mean ± s.e.m.): 200 ± 6.7 g
3 mg/kg s.c., T0 + 30 min
  % variation vs control paw, injured paw: −17%
  % variation vs pre-drug threshold, injured paw: 162%
  % activity, injured paw: 190%
  Nociceptive threshold, injured paw (mean ± s.e.m.): 524 ± 35.6 g
[2]
  % activity, injured paw: +190%
  Nociceptive threshold, injured paw (mean ± s.e.m.): 524 ± 35.6 g
[3]
  % variation vs control paw, injured paw: −47%
  % variation vs vehicle treated group, injured paw: 0%
Morphine 3 mg/kg s.c. group, Baseline (before dosing, 3 h after carrageenan)
  paw withdrawal threshold, control paw, Mean: 376 g
Morphine 3 mg/kg s.c., 30 min
  % activity on carrageenan-induced mechanical hyperalgesia, injured paw: 190%
  % variation vs control paw, injured paw: −17%
  % variation vs pre-drug threshold, injured paw: 162%
[4]
  paw withdrawal threshold, control paw, individual rats: 680 g (4×) and 640 g (2×) and 600 g and 620 g and 560 g and 520 g
  paw withdrawal threshold, injured paw, individual rats: 680 g and 600 g (2×) and 500 g and 640 g and 320 g and 400 g and 540 g and 440 g and 520 g
  paw withdrawal threshold, control paw, Mean: 630 g
